{"source": "patent US12687495B2", "about": "“Single cell selection and isolation” (ERASMUS UNIVERSITY MEDICAL CENTER ROTTERDAM, priority 2019, dated 2026)", "key": {"[1]": {"test": "UV-Vis absorption spectrum", "format": "physicochemical", "text": "Without wishing to be bound by theory, the chemical compound and the uncaging schematically proceeds as illustrated in FIG. 12. In a preferred embodiment, the photosensitizer moiety absorbs light of a wavelength from 360 nm-420 nm while the caged fluorophore moiety is essentially insensitive to light of a wavelength >400 nm. This typically means that the absorption coefficient of the photosensitizer as a wavelength of higher than 400 nm is more than 10 times, preferably more than 40 times as high as the absorption coefficient of the caged fluorophore moiety at the same wavelength."}, "cells": {"test_system": "cells", "test": "Cell permeability assay: fluorescence and retention of activated dye in phototagged cells", "format": "cell-based", "details": "15 uM for 15 min, PBS rinse, 405 nm light (1000 J/cm^2), 532 nm excitation; FIG. 10B; listed as phototagging agent", "text": "The unreacted agent was then rinsed away with PBS (phosphate buffered Saline). […] After activation, fluorescence of photoactivated uncaged rhodamine was observed and imaged by 532 nm excitation (200 mW/0.35 cm^2)."}, "MCF10A cells": {"test_system": "MCF10A cells", "test": "Uncaging efficiency of caged rhodamine with or without thioxanthone in cells", "format": "cell-based", "details": "for photoactivation / fluorescent response of irradiated cells: cells incubated with 15 uM, 405 nm exposure (1000 J/cm^2)", "experimental": "FIGS. 11A and 11B illustrate images of cells incubated with a phototagging agent, with and without photosensitizer, respectively.\nFor example, uncaging efficiency is determined by a relative decrease in the energy or intensity of light needed to uncage the phototagging agent. For example, a wavelength at which the amount of energy or intensity is compared is more than four hundred nanometer, e.g. 405 nm as shown in the comparative example of FIGS. 11A and 11B.\nThe comparison is carried out by directly measuring uncaging efficiency in biological samples. The described experiment was conducted in mammalian cancer cell lines but can be generalized without loss of relevance to other mammalian cell types. The phototagging agent (caged rhodamine with thioxanthone) at 15 uM was incubated with MCF10A cells for 15 min. The caged moiety was then removed by irradiation with 405 nm CW light at 500-1500 J/cm^2. […] The uncaged rhodamine in the cells was imaged by 532 nm excitation (200 mW/0.35 cm^2)."}}}
{"smiles": "COc1cc(COC(=O)N2CCCc3cc4c(cc32)Oc2cc3c(cc2C42OC(=O)c4cc(C(=O)Nc5ccc6sc7ccccc7c(=O)c6c5)ccc42)CCCN3C(=O)OCc2cc(OC)c(OC)cc2[N+](=O)[O-])c([N+](=O)[O-])cc1OC", "note": "[chemical compound A]", "values": [{"measurement": "absorption >400 nm", "setting": "[1]", "result": "has absorption >400 nm"}, {"measurement": "time the uncaged phototagging agent stays inside cells (photoactivated fluorescence observed)", "setting": "cells", "result": "seven"}, {"measurement": "light energy at which the caged moiety was removed (uncaging)", "setting": "MCF10A cells; 405 nm CW light, 15 uM agent incubated with MCF10A cells for 15 min, uncaged rhodamine imaged by 532 nm excitation", "result": "500-1500 J/cm^2"}, {"measurement": "uncaging efficiency compared to corresponding caged rhodamine without photosensitizer thioxanthone", "setting": "MCF10A cells; FIG. 10A, 405 nm", "result": "more than ten"}, {"measurement": "photoactivation / fluorescent response of irradiated cells", "setting": "MCF10A cells; listed as caged rhodamine conjugated with thioxanthone", "result": "a fluorescent response F could be measured"}, {"measurement": "photoactivation / fluorescent response of irradiated cells", "setting": "MCF10A cells; listed as phototagging agent", "result": "photoactivated"}]}
